Active and inactive are the calls of the source. The calls are words filed in the database; no cut-off is given here.

Assay [1] concerns the target Serine--tRNA ligase (Escherichia coli (strain K12)) (UniProt P0A8L1). The experiment in a line: Inhibition of recombinant Escherichia coli BL21(DE3) seryl-tRNA synthetase expressed in Escherichia coli Rosetta 2 (DE3) assessed as reduction in tRNA aminoacylation at 0.1 uM preincubated for 10 mins in presence of [14C]-serine and tRNA and iPPase followed by ATP addition by scintillation counting method relative to control.

The target is the same in assay [2]. As to the kind of experiment: Inhibition of recombinant Escherichia coli BL21(DE3) seryl-tRNA synthetase expressed in Escherichia coli Rosetta 2 (DE3) assessed as reduction in tRNA aminoacylation at 1 uM preincubated for 10 mins in presence of [14C]-serine and tRNA and iPPase followed by ATP addition by scintillation counting method relative to control.
In assay [3] the test system is Escherichia coli BL21(DE3). As to the kind of experiment: Inhibition of recombinant Escherichia coli BL21(DE3) aspartyl-tRNA synthetase expressed in Escherichia coli Rosetta 2 (DE3) assessed as reduction in tRNA aminoacylation at 0.1 uM preincubated for 10 mins in presence of [14C]-aspartate and tRNA and iPPase followed by ATP addition by scintillation counting method relative to control.

The subject of assay [4] is Escherichia coli BL21(DE3). The experiment in a line: Inhibition of recombinant Escherichia coli BL21(DE3) aspartyl-tRNA synthetase expressed in Escherichia coli Rosetta 2 (DE3) assessed as reduction in tRNA aminoacylation at 10 nM preincubated for 10 mins in presence of [14C]-aspartate and tRNA and iPPase followed by ATP addition by scintillation counting method.
Assay [5] is described as follows: Inhibition of recombinant Escherichia coli BL21(DE3) aspartyl-tRNA synthetase expressed in Escherichia coli Rosetta 2 (DE3) assessed as reduction in tRNA aminoacylation preincubated for 10 mins in presence of [14C]-aspartate and tRNA and iPPase followed by ATP addition by scintillation counting method.
The target of assay [6] is Serine--tRNA ligase (Escherichia coli (strain K12)) (UniProt P0A8L1). The experiment in a line: Inhibition of recombinant Escherichia coli BL21(DE3) seryl-tRNA synthetase expressed in Escherichia coli Rosetta 2 (DE3) assessed as reduction in tRNA aminoacylation at 10 uM preincubated for 10 mins in presence of [14C]-serine and tRNA and iPPase followed by ATP addition by scintillation counting method relative to control.

Assay [7] concerns Escherichia coli BL21(DE3). As to the kind of experiment: Inhibition of recombinant Escherichia coli BL21(DE3) isoleucyl-tRNA synthetase expressed in Escherichia coli Rosetta 2 (DE3) assessed as reduction in tRNA aminoacylation at 10 uM preincubated for 10 mins in presence of [14C]-isoleucin and tRNA and iPPase followed by ATP addition and measured after 6 mins by scintillation counting method. To be noted: time 16.0 min.

Assay [8] concerns Escherichia coli BL21(DE3). As to the kind of experiment: Inhibition of recombinant Escherichia coli BL21(DE3) aspartyl-tRNA synthetase expressed in Escherichia coli Rosetta 2 (DE3) assessed as reduction in tRNA aminoacylation at 1 uM preincubated for 10 mins in presence of [14C]-aspartate and tRNA and iPPase followed by ATP addition by scintillation counting method.

Serine--tRNA ligase (Escherichia coli (strain K12)), sequence (P0A8L1 whole entry, looked up): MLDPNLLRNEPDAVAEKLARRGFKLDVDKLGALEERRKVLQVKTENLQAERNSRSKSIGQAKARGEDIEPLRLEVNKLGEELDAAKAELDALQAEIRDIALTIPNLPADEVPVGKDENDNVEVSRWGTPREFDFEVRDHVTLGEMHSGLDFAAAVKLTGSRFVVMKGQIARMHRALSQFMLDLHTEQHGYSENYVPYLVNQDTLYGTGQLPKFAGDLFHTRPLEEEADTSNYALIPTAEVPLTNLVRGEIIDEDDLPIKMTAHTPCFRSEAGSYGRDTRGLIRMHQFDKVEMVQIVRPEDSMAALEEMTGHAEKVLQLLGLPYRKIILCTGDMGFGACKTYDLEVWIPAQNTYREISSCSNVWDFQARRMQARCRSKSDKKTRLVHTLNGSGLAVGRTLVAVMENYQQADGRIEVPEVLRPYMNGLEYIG

Usually inhibition stands for the share of the control response that was lost under treatment. Regarding `Cn1c(=O)ccn([C@@H]2S[C@H]([C@@H](O)[C@@H](NC(=O)[C@@H](N)CO)C(=O)O)[C@H](O)[C@H]2O)c1=O`, the inhibition came out at 50% in assay [1] and 80% in assay [2].
As a reminder, the IC50 is the concentration that gives 50% inhibition. As to `Cn1c(=O)ccn([C@@H]2S[C@H]([C@@H](O)[C@@H](NC(=O)[C@@H](N)CC(=O)O)C(=O)O)[C@H](O)[C@H]2O)c1=O`, the inhibition in assay [3] was 60%. The inhibition entry in assay [4] is “Active”. For the same compound, the IC50 in assay [5] came to 31 nM.
`Cn1c(=O)ccn([C@@H]2S[C@H]([C@H](O)[C@H](NC(=O)[C@@H](N)CO)C(=O)O)[C@H](O)[C@H]2O)c1=O`: the inhibition in assay [6] came out at 25%.
As for `CC[C@H](C)[C@H](N)C(=O)NC(C(=O)O)C(O)[C@H]1S[C@@H](n2ccc(=O)n(C)c2=O)[C@H](O)[C@H]1O` (mixture of isomers), the inhibition result in assay [7] is “inactive”.
In the case of `Cn1c(=O)ccn([C@@H]2S[C@H]([C@H](O)[C@H](NC(=O)[C@@H](N)CC(=O)O)C(=O)O)[C@H](O)[C@H]2O)c1=O`, in assay [8], the inhibition entry was “inactive”.

The record behind these values is ChEMBL document CHEMBL4665736, “Synthesis and structural insights into the binding mode of the albomycin δ1 core and its analogues in complex with their target aminoacyl-tRNA synthetase” (Bioorg Med Chem, 2020).
